We go through 12 molecules from US20260356810A1, “NOVEL PIPERAZINE-BASED SULFONAMIDES AND THEIR USE AS NEUROPROTECTIVE AND/OR NEURORESTORATIVE AGENTS” (GENECODE, priority 2022, published 2026).

T1 sequence (P56159 25-429 limits assumed): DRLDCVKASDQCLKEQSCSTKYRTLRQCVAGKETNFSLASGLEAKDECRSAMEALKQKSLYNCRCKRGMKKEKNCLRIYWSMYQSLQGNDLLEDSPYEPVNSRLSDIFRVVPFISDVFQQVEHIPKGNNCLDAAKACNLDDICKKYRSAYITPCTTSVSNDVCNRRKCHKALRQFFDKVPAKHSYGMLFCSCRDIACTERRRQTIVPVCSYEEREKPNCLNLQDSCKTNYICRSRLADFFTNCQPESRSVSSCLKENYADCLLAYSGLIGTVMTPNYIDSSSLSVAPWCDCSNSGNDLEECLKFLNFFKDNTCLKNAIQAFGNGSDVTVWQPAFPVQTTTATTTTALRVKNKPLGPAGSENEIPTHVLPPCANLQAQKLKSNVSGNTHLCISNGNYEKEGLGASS
T1 sequence (P07949 29-1114 partner): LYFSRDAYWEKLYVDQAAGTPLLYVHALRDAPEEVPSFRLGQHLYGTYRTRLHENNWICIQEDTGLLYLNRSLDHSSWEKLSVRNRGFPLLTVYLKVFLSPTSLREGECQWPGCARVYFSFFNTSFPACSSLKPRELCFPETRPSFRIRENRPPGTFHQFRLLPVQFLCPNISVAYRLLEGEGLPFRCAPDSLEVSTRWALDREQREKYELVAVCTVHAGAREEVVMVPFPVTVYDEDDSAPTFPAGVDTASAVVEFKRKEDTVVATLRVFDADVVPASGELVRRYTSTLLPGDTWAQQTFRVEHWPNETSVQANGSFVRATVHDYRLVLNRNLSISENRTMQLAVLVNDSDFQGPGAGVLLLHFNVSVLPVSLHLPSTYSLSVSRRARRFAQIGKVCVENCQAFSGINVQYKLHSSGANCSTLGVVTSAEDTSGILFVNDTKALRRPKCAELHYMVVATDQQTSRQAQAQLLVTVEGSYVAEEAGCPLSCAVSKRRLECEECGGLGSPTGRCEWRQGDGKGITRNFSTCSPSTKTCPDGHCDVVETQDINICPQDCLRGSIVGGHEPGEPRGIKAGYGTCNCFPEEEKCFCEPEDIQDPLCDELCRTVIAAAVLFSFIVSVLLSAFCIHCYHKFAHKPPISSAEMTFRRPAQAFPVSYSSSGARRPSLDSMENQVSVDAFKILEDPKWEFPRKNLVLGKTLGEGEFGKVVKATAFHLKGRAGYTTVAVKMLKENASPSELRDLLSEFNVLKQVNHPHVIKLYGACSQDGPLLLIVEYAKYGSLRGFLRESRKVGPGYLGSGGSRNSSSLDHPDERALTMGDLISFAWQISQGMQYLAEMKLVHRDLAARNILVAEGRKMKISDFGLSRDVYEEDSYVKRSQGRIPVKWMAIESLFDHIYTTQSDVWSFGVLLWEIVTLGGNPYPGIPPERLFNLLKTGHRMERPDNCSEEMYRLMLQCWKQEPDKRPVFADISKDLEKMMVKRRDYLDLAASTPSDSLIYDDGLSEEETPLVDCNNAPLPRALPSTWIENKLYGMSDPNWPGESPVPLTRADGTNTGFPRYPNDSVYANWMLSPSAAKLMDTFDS

The first experiment has as its target T1, GFRα1-RET (Homo sapiens, UniProt P56159).
T1 construct: expressed in transfected cells; host or cells: MG87 murine fibroblast
Put plainly: Luciferase assay: activation of Elk1 signaling in reporter-gene cells expressing GFRα1-RET (MG87 murine fibroblast stably transfected with PathDetect Elk-1, GFRα1, and RET). It counts as cell-based. To be noted: Table 4; MG87 murine fibroblasts with PathDetect Elk-1, GFRα1, RET; 6 concentrations, duplicate, two times independently; agonist/activator activity; read-out: Luciferase Assay EC50. The procedure:
The purpose of this experiment was to evaluate the GFRα1-RET activity of the compounds 001-060 according to the invention.
The compounds were tested for their activating activity of Elk1 signaling using the previously developed reporter-gene-based system in cells expressing GFRα1-RET (MG87 murine fibroblast stably transfected with PathDetect Elk-1, GFRα1, and RET) disclosed in Sidorova, Y. A. et al.: “Persephin signaling through GFRα1: The potential for the treatment of Parkinson's disease.” Molecular and Cellular Neuroscience, July 2010, Vol. 44, pp. 223-232. DOI: 10.1016/j.mcn.2010.03.009. For EC50 determination, a dose-response test was performed using 6 concentrations of each tested compound. Dose-response curves were fitted using the sigmoidal dose-response (variable slope) analysis in GraphPad Prism program (Graph Pad Inc) and EC50 of agonist/activator activity was calculated. Dose-response experiments were all performed in duplicate, two times independently.
The compounds were tested for their activating activity of Elk1 signaling using the same materials and methods than for the compounds according to the invention (Example 2 herein, section “Materials and methods”).
`CCCN(C)S(=O)(=O)c1ccc(OCCO)c(N2CCN(C(=O)c3ccc(F)cc3C(F)(F)F)CC2)c1` [Compound 049, 3-[4-[4-fluoro-2-(trifluoromethyl)benzoyl]piperazin-1-yl]-4-(2-hydroxyethoxy)-N-methyl-N-propyl-benzenesulfonamide]: the half-maximal effective concentration (EC50) was 10 to 50 µM. The same measure, in the same setting: under `COc1ccc(S(=O)(=O)N2CCC(c3ccc(F)cc3)CC2)cc1N1CCN(C(=O)c2ccc(F)cc2Cl)CC1` [Compound 050, (2-chloro-4-fluoro-phenyl)-[4-[5-[[4-(4-fluorophenyl)-1-piperidyl]sulfonyl]-2-methoxy-phenyl]piperazin-1-yl]methanone] stands under 1 µM.

For `COc1ccc(S(=O)(=O)N2CCN(CCc3ccc(Cl)cc3)CC2)cc1N1CCN(C(=O)c2ccc(F)cc2Cl)CC1` [Compound 051, (2-chloro-4-fluoro-phenyl)-[4-[5-[4-[2-(4-chlorophenyl)ethyl]piperazin-1-yl]sulfonyl-2-methoxy-phenyl]piperazin-1-yl]methanone], the half-maximal effective concentration (EC50) was in the range of 1 to 5 µM.

In the case of `COc1ccc(S(=O)(=O)N2CCN(CCc3ccc(F)cc3)CC2)cc1N1CCN(C(=O)c2ccc(F)cc2Cl)CC1` [Compound 052, (2-chloro-4-fluoro-phenyl)-[4-[5-[4-[2-(4-fluorophenyl)ethyl]piperazin-1-yl]sulfonyl-2-methoxy-phenyl]piperazin-1-yl]methanone], the EC50 fell in the range of 1 to 5 µM.

As to `Cc1cc(S(=O)(=O)N2CCC(c3ccccc3)CC2)cc(N2CCN(C(=O)c3ccc(F)cc3Cl)CC2)c1O` [Compound 055, (2-chloro-4-fluoro-phenyl)-[4-[2-hydroxy-3-methyl-5-[(4-phenyl-1-piperidyl)sulfonyl]phenyl]piperazin-1-yl]methanone], the EC50 is under 1 µM. As for `Cc1cc(S(=O)(=O)N2CCC(c3ccc(F)cc3)CC2)cc(N2CCN(C(=O)c3ccc(F)cc3Cl)CC2)c1O` [Compound 056, (2-chloro-4-fluoro-phenyl)-[4-[5-[[4-(4-fluorophenyl)-1-piperidyl]sulfonyl]-2-hydroxy-3-methyl-phenyl]piperazin-1-yl]methanone], the 50% effective concentration (EC50) was under 1 µM.

On to `O=C(c1ccc(F)cc1Cl)N1CCN(c2cc(S(=O)(=O)N3CCC(F)CC3)cc(Cl)c2O)CC1` [Compound 057, (2-chloro-4-fluoro-phenyl)-[4-[3-chloro-5-[(4-fluoro-1-piperidyl)sulfonyl]-2-hydroxy-phenyl]piperazin-1-yl]methanone], for which the 50% effective concentration (EC50) lay in the range of 1 to 5 µM.

For the molecule `CC(C)(C)NS(=O)(=O)c1cc(Cl)c(O)c(N2CCN(C(=O)c3ccc(F)cc3Cl)CC2)c1` [Compound 058, N-tert-butyl-3-chloro-5-[4-(2-chloro-4-fluoro-benzoyl)piperazin-1-yl]-4-hydroxy-benzenesulfonamide], the EC50 was under 1 µM. On the same count and under the same terms, in the case of `CN(CC1CC1)S(=O)(=O)c1cc(Cl)c(O)c(N2CCN(C(=O)c3ccc(F)cc3Cl)CC2)c1` [Compound 059, 3-chloro-5-[4-(2-chloro-4-fluoro-benzoyl)piperazin-1-yl]-N-(cyclopropylmethyl)-4-hydroxy-N-methyl-benzenesulfonamide] it was under 1 µM.

`COc1ccc(S(=O)(=O)N2CCCC2(C)C)cc1N1CCN(C(=O)c2ccc(F)cc2Cl)CC1` [Compound 060, (2-chloro-4-fluoro-phenyl)-[4-[5-(2,2-dimethylpyrrolidin-1-yl)sulfonyl-2-methoxy-phenyl]piperazin-1-yl]methanone]: the concentration giving a half-maximal response (EC50) was in the range of 1 to 5 µM.

The same experiment, now with this note: Table 6, comparison with comparative compounds; values for 001, 009, 010 reported from Table 4; MG87 GFRα1-RET cells; read-out: Luciferase Assay EC50.
Turning to `COc1ccc(S(=O)(=O)N2CCC(Cc3ccccc3)CC2)cc1N1CCN(C(=O)c2cc(F)ccc2C(F)(F)F)CC1` [Compound C01, (4-(5-((4-benzylpiperidin-1-yl)sulfonyl)-2-methoxyphenyl)piperazin-1-yl)(5-fluoro-2-(trifluoromethyl)phenyl)methanone, reference compound], the EC50 was over 50 µM. As for `CCN(CC)S(=O)(=O)c1ccc(OC)c(N2CCN(C(=O)c3cc(F)ccc3C(F)(F)F)CC2)c1` [Compound C02, N,N-diethyl-3-(4-(5-fluoro-2-(trifluoromethyl)benzoyl)piperazin-1-yl)-4-methoxybenzenesulfonamide, reference compound], the EC50 was over 50 µM.

Still in this experiment, the particulars now being: text statement on Table 6 results, GFRα1-RET luciferase assay; read-out: EC50.
Turning to `COc1ccc(S(=O)(=O)N2CCC(Cc3ccccc3)CC2)cc1N1CCN(C(=O)c2cc(F)ccc2C(F)(F)F)CC1` [Compound C01, (4-(5-((4-benzylpiperidin-1-yl)sulfonyl)-2-methoxyphenyl)piperazin-1-yl)(5-fluoro-2-(trifluoromethyl)phenyl)methanone, reference compound], the EC50 is over 50 µM. For `CCN(CC)S(=O)(=O)c1ccc(OC)c(N2CCN(C(=O)c3cc(F)ccc3C(F)(F)F)CC2)c1` [Compound C02, N,N-diethyl-3-(4-(5-fluoro-2-(trifluoromethyl)benzoyl)piperazin-1-yl)-4-methoxybenzenesulfonamide, reference compound], the 50% effective concentration (EC50) was over 50 µM.

As usually defined, the EC50 is the concentration giving half of the maximal effect.
